Test results as given in publication PMC8903829 (eLife, 2022).
Values joined by “and” are separate entries in the source; they are usually repeats but may differ in a detail not shown here. Equal entries are not always repeated. Where two headings read alike, the source gives them in different places.

Columns and labels:
Scn8a^N1768D/+ mice = assay: Modified 6 Hz psychomotor seizure assay; type: in vivo, mouse; conditions: for SCN8a mouse 6Hz chronic, Fraction of animals seizing: day 7, 2 hr after 13th dose; for SCN8a mouse 6Hz acute, Fraction of animals seizing: 2 hr; for EC50: Scn8a^N1768D/+ 6 Hz model
Procedure, shortened: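 Heterozygous Scn8a^N1768D/+ mice aged 5 weeks (p35) underwent a modified 6 Hz psychomotor seizure assay as an in vivo readout of NaV1.6-mediated efficacy. Compounds were given 2 hr before corneal electroshock (6 Hz, 12 mA, 3 s, 0.3-ms pulse interval) after Alcaine eye anesthesia. Blinded scoring counted generalized tonic-clonic seizure with hindlimb extension as unprotected (1), prevention as protected (0).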

Sprague Dawley rats = assay: Observation of potential adverse behavior (behavioral signs) in the rat DC-MES studies; type: in vivo; conditions: rat
Method: Animals were observed by the scientist(s) responsible for dosing for the first 30 min after dosing for and again at the time of assay (2 hr post dose) for signs of abnormal behavior.

[1] = Bioanalytical assessment of plasma and brain concentrations after 6 Hz assay; type: in vivo, mouse; conditions: for Mean [Plasma] / Mean [Brain] / concentration at 2 hr: Scn8a mice; for concentration at 2 hr: mouse, po
Procedure, shortened: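 Blood (cardiac puncture, EDTA) and whole brains taken at end of the in vivo assay; brain homogenized in 1:1 acetonitrile/water. Plasma and homogenate extracted by acetonitrile protein precipitation with internal standard, quantified by UHPLC-ESI-MS/MS against a 1/X-weighted linear calibration.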

[2] = Bioanalytical assessment of plasma and brain concentrations after rat DC-MES assay; type: in vivo; conditions: sheet Figure 5G, 5H, 5I (rats); for concentration at 2 h: rat, po
[3] = 6 mg/kg PO every 12 hr, day 7, 2 hr after 13th dose, 6 mg/kg
[4] = 100 mg/kg PO single dose, after assay 2 hr post dose, 100 mg/kg

Cc1cc(S(=O)(=O)Nc2cscn2)c(F)cc1N(C)[C@H]1CCN(Cc2ccccc2)C1 [NBI-921352]
SCN8a mouse 6Hz chronic, Fraction of animals seizing (Scn8a^N1768D/+ mice; 2 mg/kg PO every 12 hr): 0.5 | SCN8a mouse 6Hz acute, Fraction of animals seizing (Scn8a^N1768D/+ mice; 2 mg/kg PO single dose): 0.8 | SCN8a mouse 6Hz acute, Fraction of animals seizing (Scn8a^N1768D/+ mice; 3 mg/kg PO single dose): 0.8 | SCN8a mouse 6Hz chronic, Fraction of animals seizing (Scn8a^N1768D/+ mice; 6 mg/kg PO every 12 hr): 0.34 and 0.429 and 0.5 | SCN8a mouse 6Hz acute, Fraction of animals seizing (Scn8a^N1768D/+ mice; 6 mg/kg PO single dose): 0.5 and 0.667 and 0.834 and 0.715 | SCN8a mouse 6Hz acute, Fraction of animals seizing (Scn8a^N1768D/+ mice; 10 mg/kg PO single dose): 0.57 and 0.4 | SCN8a mouse 6Hz acute, Fraction of animals seizing (Scn8a^N1768D/+ mice; 30 mg/kg PO single dose): 0.43 and 0.5 and 0.333 and 0.4 | SCN8a mouse 6Hz acute, Fraction of animals seizing (Scn8a^N1768D/+ mice; 200 mg/kg PO single dose): 0 | SCN8a mouse 6Hz acute, Fraction of animals seizing (Scn8a^N1768D/+ mice; 300 mg/kg PO single dose): 0 | EC50 (Scn8a^N1768D/+ mice; Mus musculus, 2 hr post dose (oral; phenytoin i.p.), read-out: brain EC50): 64 nM | EC50 (Scn8a^N1768D/+ mice; Mus musculus, 2 hr post dose, read-out: plasma EC50): 37 nM | ED50 (Scn8a^N1768D/+ mice; Mus musculus, oral, 2 hr prior to stimulation, read-out: ED50, prevention of GTC with hindlimb extension): 15 mg/kg | minimal plasma concentration provoking behavioral signs (BSC) (Sprague Dawley rats): 71 µM | Mean [Plasma] ([1]; 3 mg/kg PO single dose, after assay 2 hr post dose, 3 mg/kg): 0.003985 µM | Mean [Brain] [1, 3]: 0.02201 µM and 0.01923 µM | Mean [Plasma] [1, 3]: 0.01663 µM and 0.02029 µM | Mean [Plasma] ([1]; 10 mg/kg PO single dose, after assay 2 hr post dose, 10 mg/kg): 0.01541 µM | Mean [Brain] ([1]; 30 mg/kg PO single dose, after assay 2 hr post dose, 30 mg/kg): 0.133 µM and 0.1224 µM and 0.09287 µM and 0.1253 µM | Mean [Brain] [1, 4]: 0.3467 µM | Mean [Plasma] [1, 4]: 0.5385 µM | concentration at 2 hr ([1]; Scn8a^N1768D/+ (heterozygous gain-of-function knock-in line), brain, 30 mg/kg, 30 mg/kg PO single dose, after assay 2 hr post dose, read-out: Mean [Brain]): 96.6 nM | concentration at 2 hr ([1]; Scn8a^N1768D/+ (heterozygous gain-of-function knock-in line), brain, 100 mg/kg, 100 mg/kg PO single dose, after assay 2 hr post dose, read-out: Mean [Brain]): 357 nM | concentration at 2 hr ([1]; Scn8a^N1768D/+ (heterozygous gain-of-function knock-in line), plasma, 3 mg/kg, 3 mg/kg PO single dose, after assay 2 hr post dose, read-out: Mean [Plasma]): 3.45 nM | concentration at 2 hr ([1]; Scn8a^N1768D/+ (heterozygous gain-of-function knock-in line), plasma, 10 mg/kg, 10 mg/kg PO single dose, after assay 2 hr post dose, read-out: Mean [Plasma]): 9.56 nM | concentration at 2 hr ([1]; Scn8a^N1768D/+ (heterozygous gain-of-function knock-in line), plasma, 100 mg/kg, 100 mg/kg PO single dose, after assay 2 hr post dose, read-out: Mean [Plasma]): 717 nM | concentration at 2 hr ([1]; Scn8a^N1768D/+, brain, 2 mg/kg, 2 mg/kg PO every 12 hr, day 7, 2 hr after 13th dose, read-out: Mean [Brain]): 10.5 nM | concentration at 2 hr ([1]; Scn8a^N1768D/+, brain, 2 mg/kg, 2 mg/kg PO single dose, after assay 2 hr post dose, read-out: Mean [Brain]): 8.02 nM | concentration at 2 hr ([1]; Scn8a^N1768D/+, brain, 6 mg/kg, 6 mg/kg PO every 12 hr, day 7, 2 hr after 13th dose, read-out: Mean [Brain]): 28.8 nM | concentration at 2 hr ([1]; Scn8a^N1768D/+, brain, 200 mg/kg, 200 mg/kg PO single dose, after assay 2 hr post dose, read-out: Mean [Brain]): 3850 nM | concentration at 2 hr ([1]; Scn8a^N1768D/+, brain, 300 mg/kg, 300 mg/kg PO single dose, after assay 2 hr post dose, read-out: Mean [Brain]): 6940 nM | concentration at 2 hr ([1]; Scn8a^N1768D/+, plasma, 2 mg/kg, 2 mg/kg PO every 12 hr, day 7, 2 hr after 13th dose, read-out: Mean [Plasma]): 2.95 nM | concentration at 2 hr ([1]; Scn8a^N1768D/+, plasma, 2 mg/kg, 2 mg/kg PO single dose, after assay 2 hr post dose, read-out: Mean [Plasma]): 1.08 nM | concentration at 2 hr ([1]; Scn8a^N1768D/+, plasma, 6 mg/kg, 6 mg/kg PO every 12 hr, day 7, 2 hr after 13th dose, read-out: Mean [Plasma]): 13.2 nM | concentration at 2 hr ([1]; Scn8a^N1768D/+, plasma, 200 mg/kg, 200 mg/kg PO single dose, after assay 2 hr post dose, read-out: Mean [Plasma]): 12600 nM | concentration at 2 hr ([1]; Scn8a^N1768D/+, plasma, 300 mg/kg, 300 mg/kg PO single dose, after assay 2 hr post dose, read-out: Mean [Plasma]): 31500 nM | accumulation in the plasma or tissue on repeated dosing ([1]; every 12 hr for 13 doses, mice and rats): did not appreciably accumulate | concentration at 2 h ([2]; brain, 1 mg/kg, 1 mg/kg PO every 12 hr, day 7, 2 hr after 13th dose, read-out: Mean [Brain]): 12.5 nM | concentration at 2 h ([2]; brain, 1 mg/kg, 1 mg/kg PO single dose, 2 hr, read-out: Mean [Brain]): 16.6 nM | concentration at 2 h ([2]; brain, 3 mg/kg, 3 mg/kg PO every 12 hr, day 7, 2 hr after 13th dose, read-out: Mean [Brain]): 39.6 nM | concentration at 2 h ([2]; brain, 10 mg/kg, 10 mg/kg PO single dose, 2 hr, read-out: Mean [Brain]): 161 nM | concentration at 2 h ([2]; brain, 30 mg/kg, 30 mg/kg PO single dose, 2 hr, read-out: Mean [Brain]): 213 nM | concentration at 2 h ([2]; plasma, 1 mg/kg, 1 mg/kg PO every 12 hr, day 7, 2 hr after 13th dose, read-out: Mean [Plasma]): 33.9 nM | concentration at 2 h ([2]; plasma, 3 mg/kg, 3 mg/kg PO every 12 hr, day 7, 2 hr after 13th dose, read-out: Mean [Plasma]): 123 nM | concentration at 2 h ([2]; plasma, 10 mg/kg, 10 mg/kg PO single dose, 2 hr, read-out: Mean [Plasma]): 1150 nM | concentration at 2 h ([2]; plasma, 30 mg/kg, 30 mg/kg PO single dose, 2 hr, read-out: Mean [Plasma]): 2330 nM | Mean [Brain] ([2]; 1 mg/kg PO single dose, 2 hr, 1 mg/kg): 0.02047 µM and 0.01429 µM and 0.01541 µM
